# Data from patent EP2802310B1, “NEW USE OF ZERUMBONE AND COMPOSITIONS COMPRISING ZERUMBONE” (Sederma, priority 2012, dated 2013).
# Assays:
# Cathepsin-S = Cathepsin-S in NHF under NO stress, ELISA; format: cell-based, human; conditions: NO stress (NOC-5)
# Description: Principle: NHFs were put into contact with the invention product for 24h then were subjected to NO stress. NO donor, NOC-5, was introduced in the culture medium. At the end of a second 24h contact with the zerumbone extract, a cathepsin-S assay was performed using ELISA. At the same time, the number of cells was quantified using the Hoechst method.
# mature adipocytes = assay: Intracellular triglyceride quantity in mature adipocytes; format: cell-based, human; conditions: Zerumbone 6ppm
# Description: (§1) Mature human adipocytes were treated with zerumbone to evaluate daily for 3 days. A daily titration of the released glycerol, reflecting lipolysis, was measured in the medium, before the media were changed in order to monitor the long-term effect.
# Table 5: comparison of the intracellula triglyceride quantity found in mature adipocytes
# Table 20: Comparison of the intracellular triglyceride content found in the mature adipocytes; compared effect of zerumbone, caffeine and of a mixture of zerumbone and caffeine.
# Fibromodulin = Fibromodulin synthesis in NHF, ELISA; format: cell-based, human; conditions: two days
# Description: (§2) Principle: NHFs were put into contact with the product of the invention for two days (fibromodulin) or three days (dermatopontin). The supernatants were then assayed using ELISA tests. At the same time, the number of cells was quantified using the Hoechst method.
# elastin [1] = assay: Elastin synthesis in fibroblasts under NO stress, ELISA; format: cell-based; conditions: Homo sapiens, Fibroblast, NHF, compared to the control case following the same NO, read-out: protection of elastin synthesis
# Human preadipocytes [2] = assay: Triglyceride content after preadipocyte differentiation (glycerol released after lipase); format: cell-based; conditions: 10 days
# Description: Human preadipocytes were plated and induced to differentiate at confluence in the presence of a cocktail of specific inducers and evaluated products. After 10 days, the triglyceride content of the culture was estimated by measuring the released glycerol after the action of a lipase.
# elastase = assay: Dermal destruction by proteases in skin explants, elastase; conditions: 18ppm of zerumbone co-injected with the protease; five days at 37°C; confocal microscope
# Description: (§3) Principle: Once prepared, skin explants (person, abdominal skin) received an injection of elastase or collagenase that could proteolyse 30 µmol/min of elastin or collagen. In another case, the invention product (titrated at 18ppm of zerumbone) was co-injected with the protease to assess its ability to inhibit the proteolysis of constituents of the dermis, and thus of protection of the dermis. After five days of incubation at 37°C, the result was observed through a confocal microscope and compared to what was obtained in the case without protease at the same depth (60 µm).
# Mature human adipocytes [3] = assay: Lipolytic effect, daily titration of released glycerol over 3 days; format: cell-based; conditions: Homo sapiens, Adipocyte, Zerumbone 6ppm, read-out: released glycerol, versus negative control
# Description: as §1
# In a second test, mature human adipocytes were treated with the product to evaluate daily for 3 days. A daily titration of the released glycerol was performed in the media, just before changing of the media in order to monitor the long term effect. Table 19: Comparison of the lipolytic effect of caffeine, zerumbone and of a mixture of caffeine and zerumbone on hypertrophied adipocytes in monolayer (n=4) at short and long term.
# elastin [4] = assay: Elastin fibres in skin explants under NO stress (Verhoeff stain); conditions: 18 ppm
# Description: Principle: Explants (person, abdominal skin) received a topical cream containing the product of the invention (cream according to above example 1 at 18ppm of zerumbone) or a placebo cream (same cream without zerumbone) for two days. At the same time, the culture medium received 18ppm of zerumbone in a liquid form (or its excipient) to potentiate the effects. A NO stress was later applied for 24 hours using an NO donor (NOC-5) integrated in the culture medium. Finally, the product was again applied on the explants and in the culture medium for two days.
# Counting was done using photos (50 photos/case) by filtering the colours.
# Human preadipocytes [5] = assay: Anti-differentiating effect, intracellular G3PDH activity, human preadipocytes; format: cell-based
# Description: Human preadipocytes were plated and induced to differentiate at confluence in the presence of a cocktail of specific inducers and the evaluated products. After 10 days, the layers were crushed and intracellular G3PDH activity was assayed. A cell quantification test (Hoechst) on the same extracts complements the assay.
# Dermatopontin = Dermatopontin synthesis in NHF, ELISA; format: cell-based, human; conditions: three days
# Description: as §2
# [6] = system: Murine 3T3-L1 fibroblasts; assay: Anti-differentiating effect on adipocytes, intracellular G3PDH activity, 3T3-L1 line; format: cell-based
# Description: Murine 3T3-L1 fibroblasts were seeded and induced to differentiate into adipocytes for 6 days with specific inducers in the presence of the evaluated products. When mature adipocytes were obtained, layers were crushed and intracellular G3PDH ([…]) activity is measured. A cell quantification test (Hoechst) on the same extracts complements the assay.
# MMP1 = MMP1 synthesis in NHF after UVA, ELISA; format: cell-based, human; conditions: 24h before and 24h after UVA
# Description: Principle: NHFs were put into contact with the product of the invention for 24h, and then were radiated with UVA rays to trigger an experimental increase in MMP1 synthesis. The cells once again received the product for 24h and the supernatants were assayed using ELISA tests. At the same time, the number of cells was quantified using the Hoechst method.
# collagenase = assay: Dermal destruction by proteases in skin explants, collagenase; conditions: 18ppm of zerumbone co-injected with the protease; five days at 37°C; confocal microscope
# Description: as §3
# Mature human adipocytes [7] = assay: Lipolytic effect, released glycerol after 3 hours; format: cell-based; conditions: Adipocyte, Zerumbone 6ppm, contact time 3h, read-out: released glycerol, versus negative control
# Description: In a first test, mature human adipocytes were treated with the product to evaluate for 3 hours, then titration of the released glycerol, reflecting lipolysis, was measured in the medium.
smiles,measurement,setting,value
"C/C1=C\CC(C)(C)/C=C/C(=O)/C(C)=C/CC1 [Zerumbone, 2E, 6E, 9E-Humulatrien-8-one]",Cathepsin-S,Cathepsin-S; 5 ppm,290 ± 40 pg/106cell.
same,inhibition at 5 ppm,"Cathepsin-S; Homo sapiens, Fibroblast, read-out: Cathepsin-S % Variation",34%
same,inhibition at 6 ppm,"mature adipocytes; Homo sapiens, Adipocyte, 72 h, read-out: Triglycerides Variation (%)",37%
same,Triglycerides,mature adipocytes,4947 ± 236 µM/10^6cell.
same,Triglycerides Variation (%),mature adipocytes; 4320 min,-37%; p<0.01
same,Fibromodulin,Fibromodulin; 5 ppm,51.4 ± 13.4 ng/106cell.
same,activation at 5 ppm,"Fibromodulin; Homo sapiens, 48 h, read-out: Fibromodulin % Variation",268%
same,activation at 5 ppm,elastin [1],179%
same,[TG],Human preadipocytes [2]; 3ppm,3562 +/- 233 µ U/ 10^6 cell
same,[TG],Human preadipocytes [2]; 5ppm,2966 +/- 128 µ U/ 10^6 cell
same,inhibition at 3 ppm,"Human preadipocytes [2]; Homo sapiens, 240 h, 3ppm, read-out: [TG] % Var / control",15%
same,inhibition at 5 ppm,"Human preadipocytes [2]; Homo sapiens, 240 h, 5ppm, read-out: [TG] % Var / control",29%
same,integrity of the dermis under elastase stress,elastase,retains its integrity
same,activation at 6 ppm,"Mature human adipocytes [3]; 24 h, contact time 1 day",72%
same,activation at 6 ppm,"Mature human adipocytes [3]; 48 h, contact time 2 days",141%
same,activation at 6 ppm,"Mature human adipocytes [3]; 72 h, contact time 3 days",246%
same,Elastin,"elastin [4]; cream and culture medium, NO stress (NOC-5) 24 hours",2.41 ± 1.40 UCA
same,Elastin % Variation,elastin [4]; versus Control NO (Reference 2),+104%; p<0.01
same,[G3PDH],"Human preadipocytes [5]; 0.5ppm, 10 days",144 +/- 15 mU/ 10^6 cell
same,[G3PDH],"Human preadipocytes [5]; 1ppm, 10 days",106 +/- 14 mU/ 10^6 cell
same,[G3PDH],"Human preadipocytes [5]; 3ppm, 10 days",30 +/- 2 mU/ 10^6 cell
same,G3PDH activity and human preadipocytes differentiation,Human preadipocytes [5]; 5 ppm of extract,complete inhibition
same,[G3PDH],"Human preadipocytes [5]; 5ppm, 10 days",15 +/- 3 mU/ 10^6 cell
same,inhibition at 0.5 ppm,"Human preadipocytes [5]; Homo sapiens, 240 h, 0.5ppm, 10 days, read-out: [G3PDH] % Var / control",18%
same,inhibition at 1 ppm,"Human preadipocytes [5]; Homo sapiens, 240 h, 1ppm, 10 days, read-out: [G3PDH] % Var / control",39%
same,inhibition at 3 ppm,"Human preadipocytes [5]; Homo sapiens, 240 h, 3ppm, 10 days, read-out: [G3PDH] % Var / control",83%
same,inhibition at 5 ppm,"Human preadipocytes [5]; Homo sapiens, 240 h, 5ppm, 10 days, read-out: [G3PDH] % Var / control",91%
same,Dermatopontin,Dermatopontin; 5 ppm,2540 ± 361 ng/106cell.
same,activation at 5 ppm,"Dermatopontin; Homo sapiens, 72 h, read-out: Dermatopontin % Variation",137%
same,[G3PDH],"[6]; 1ppm, differentiation for 6 days",304.2 +/- 9.9 mU/ 10^6 cell
same,cytotoxicity,"[6]; 3T3-L1, tested doses",without apparent cytotoxicity
same,[G3PDH],"[6]; 3ppm, differentiation for 6 days",79.3 +/- 43.6 mU/ 10^6 cell
same,differentiation of 3T3-L1,[6]; 5ppm,total inhibition
same,[G3PDH],"[6]; 5ppm, differentiation for 6 days",3.4+/-10.3 mU/ 10^6 cell
same,inhibition at 1 ppm,"[6]; Mus musculus, 3T3-L1, 144 h, 1ppm, differentiation for 6 days, read-out: [G3PDH] % Var / control",53%
same,inhibition at 3 ppm,"[6]; Mus musculus, 3T3-L1, 144 h, 3ppm, differentiation for 6 days, read-out: [G3PDH] % Var / control",88%
same,inhibition at 5 ppm,"[6]; Mus musculus, 3T3-L1, 144 h, 5ppm, differentiation for 6 days, read-out: [G3PDH] % Var / control",99%
same,MMP1,MMP1; 5 ppm,691 ± 225 ng/106cell.
same,inhibition at 5 ppm,"MMP1; Homo sapiens, Fibroblast, light or radiation study, read-out: MMP1 % Variation",51%
same,integrity of the dermis under collagenase stress,collagenase,retains its integrity
same,activation at 6 ppm,Mature human adipocytes [7],0%
